# Data taken from patent US12447187B2, “Composition for preventing and treating inflammatory bowel disease including puer tea extract” (priority 2021, dated 2025).
# Tested on: DSS-induced ulcerative colitis
# Test: DSS-induced ulcerative colitis model (body weight, colon length, histology, DAI)
# Assay type: in vivo, ICR mice
# Conditions: 3% DSS mice
# Experimental: Experimental animals, ICR mice (6 weeks old male) were supplied from Daehan Biolink (Chungcheongbuk-do Province, Korea) and used. After 1 week of adaptation of experimental animals, 7 animals were accommodated in each group. During the experiment, the breeding conditions were 23±2° C. for a temperature, 55±10% for a relative humidity, and 150 to 300 Lux for lighting with a 12-hour cycle (artificial lighting, 8:00 am-8:00 pm). Feed was powdered feed for laboratory animals, and water was provided freely during the experiment period. Acute ulcerative colitis was induced in mice while allowing free intake of water containing 3% (w/v) of DDS for 14 days. During the experiment, each group of experimental animals was observed by checking whether the mice lost weight, urine and feces tests, and bleeding every day. Experimental animals were classified into the following four groups and the experiment was performed (Table 1). Puer tea extract and ASA were orally administered once a day for 14 days from the day of DDS treatment. After the experiment, mice were sacrificed, and the results were measured. Ulcerative colitis is measured by clinical signs such as weight loss, diarrhea with bleeding and mucus, and shortens the length of the colon. […] Weight loss is calculated as the difference between the initial and present weight. Visible rectal bleeding means diarrhea accompanied by bleeding or total rectal bleeding, and the DAI was calculated by the following equation. […] Puer tea extract (100 mg/kg) was orally administered once a day to 7 mice induced with 3% DSS for 14 days, and then the weights of the mice were measured, and the mean of the data in the triplicate experiment was expressed as ±S.D. Puer tea extract (100 mg/kg) was orally administered once a day for 14 days to 7 mice induced with 3% DSS for 14 days, and then the colon was removed, and the colon length was evaluated (A of FIG. 2). […] DAI was calculated as in Examples 1-5), and the mean of the experimental data was expressed as ±SD.
substance,measurement,setting,value
5-acetylsalicylic acid [5-ASA],colon length,"100 mg/kg orally once a day for 14 days, normal group 8.01±0.16, DSS group 5.25±0.12",6.77±0.33 cm
same,thickness of the barrier muscle layer (H&E colon sections),"14 days, vs DSS group",became thinner again
same,"DAI clinical symptoms (weight loss, diarrhea, rectal bleeding)","once a day for 14 days, vs DSS single treatment",significantly decreased
